Values joined by “and” are separate entries in the source; they are usually repeats but may differ in a detail not shown here. Identical values can stand only once. Counter-ions that a name gives are not always drawn. Like-named read-outs stand apart in the source and are kept apart here.

As usually defined, the inhibition is the relative decrease from the control value, in per cent.

The test system of experiment [1] is TNFα secretion in white blood cells from human buffy coat. Nature of the experiment: TNFα secretion assay, cells stimulated with phorbol 12-myristate 13-acetate and ionomycin (Tables 7-26). The note with it: for inhibition at 0.3 µM: read-out: percent inhibition of TNFα secretion, dipyridamole 0.3 μM; for inhibition at 19 µM: read-out: percent inhibition of TNFα secretion, dipyridamole 19 μM; for inhibition at 39 µM: read-out: percent inhibition of TNFα secretion, dipyridamole 39 μM; for percent inhibition of TNFα secretion: dipyridamole 0 μM.
Protocol: (§1) Drugs were added to the indicated concentration. […] The plate was then washed again with 0.1% Tween 20/PBS. An HRP-luminescent substrate was added to each well, and the light intensity of each well was measured using a plate luminometer.

The test system is the same in experiment [2].
Protocol: as §1
The mark [3] stands for this setting: Homo sapiens, Nortriptyl (μM): 0, 0.52, 1, 2.1, 4.2, 8.3, 17, 33, 67.
Setting [4] is: Homo sapiens, Ro-20-1724 (μM) by grid row: r5 0, r6 0.28, r7 0.56, r8 1.1, r9 2.2, r10 4.5, r11 9, r12 18, r13 36.
Setting [5] is: Homo sapiens, amoxapine (μM) by grid row: r5 0, r6 0.25, r7 0.5, r8 1, r9 2, r10 4, r11 8, r12 16, r13 32.
The mark [6] stands for this setting: Homo sapiens, fluoxetine (μM) by grid row: r5 0, r6 0.45, r7 0.9, r8 1.8, r9 3.6, r10 7.2, r11 14, r12 29, r13 58.
Setting [7] is: Homo sapiens, paroxetine (μM): 0, 0.21, 0.42, 0.83, 1.7, 3.3, 6.7, 13, 27.

Consider `C[C@]12C=CC(=O)C=C1CC[C@@H]1[C@@H]2[C@@H](O)C[C@@]2(C)[C@H]1CC[C@]2(O)C(=O)CO` [Prednisolone], for which, in experiment [1] (Homo sapiens, read-out: percent inhibition of TNFα secretion, prednisolone 0.5 μM, dipyridamole (μM) by grid row: r5 0, r6 0.3, r7 0.61, r8 1.2, r9 2.4, r10 4.9, r11 9.7, r12 19, r13 39), the inhibition at 0.5 µM is 29.9%.

With `CCCC1O[C@@H]2C[C@H]3[C@@H]4CCC5=CC(=O)C=C[C@]5(C)[C@H]4[C@@H](O)C[C@]3(C)[C@]2(C(=O)CO)O1` (stereo partly shown) [Budesonide], the inhibition at […] in experiment [1] (Homo sapiens, read-out: percent inhibition of TNFα secretion, budesonide 35 nM, dipyridamole (μM as printed) by grid row: r5 0, r6 30, r7 121, r8 486, r9 1943, r10 7773) came to 36.3%.

With `C[C@H]1C[C@H]2[C@@H]3CCC4=CC(=O)C=C[C@]4(C)[C@@]3(F)[C@@H](O)C[C@]2(C)[C@@]1(O)C(=O)CO` [Betamethasone], in experiment [2], the inhibition was 34.9% and 35.2%.

Turning to `OCCN(CCO)c1nc(N2CCCCC2)c2nc(N(CCO)CCO)nc(N3CCCCC3)c2n1` [Dipyridamole, 2,6-bis(diethanolamino)-4,8-dipiperidinopyrimido(5,4-d)pyrimidine], the inhibition at 0.3 µM was 14% in experiment [1] (setting [3]); -1.96% in experiment [1] (setting [4]); 19% in experiment [1] (setting [5]); 18% in experiment [1] (setting [6]); 21% in experiment [1] (setting [7]). The inhibition at 19 µM in experiment [1] (setting [3]) worked out at 64%; in experiment [1] (setting [4]), 64%; in experiment [1] (setting [6]), 62%; in experiment [1] (setting [7]), 60%. Also, the inhibition at 39 µM stood at 80% in experiment [1] (setting [3]), 78% in experiment [1] (setting [5]), 76% in experiment [1] (setting [6]) and 76% in experiment [1] (setting [7]).

Take `CCOC(=O)N1CCC(=C2c3ccc(Cl)cc3CCc3cccnc32)CC1` [Loratadine]: in experiment [1] (loratadine (μM) by grid row: r5 0, r6 0.2, r7 0.41, r8 0.82, r9 1.6, r10 3.3, r11 6.5, r12 13, r13 26), the “percent inhibition of TNFα secretion” value worked out at 31%.

`CC(C)C(=O)c1c(C(C)C)nn2ccccc12` [Ibudilast]: the inhibition at 0.5 µM in experiment [1] (Homo sapiens, read-out: percent inhibition of TNFα secretion, ibudilast 0.5 μM, dipyridamole (μM): 0, 0.15, 0.3, 0.61, 1.2, 2.4, 4.9, 9.7, 19) was determined as 22.9%. The inhibition at 1 µM in experiment [1] (Homo sapiens, read-out: percent inhibition of TNFα secretion, ibudilast 1 μM, dipyridamole (μM): 0, 0.15, 0.3, 0.61, 1.2, 2.4, 4.9, 9.7, 19) was 37.4%. For the same compound, the inhibition at 2 µM in experiment [1] (Homo sapiens, read-out: percent inhibition of TNFα secretion, ibudilast 2 μM, dipyridamole (μM): 0, 0.15, 0.3, 0.61, 1.2, 2.4, 4.9, 9.7, 19) stood at 42.9%. For the same compound, the inhibition at 4 µM in experiment [1] (Homo sapiens, read-out: percent inhibition of TNFα secretion, ibudilast 4 μM, dipyridamole (μM): 0, 0.15, 0.3, 0.61, 1.2, 2.4, 4.9, 9.7, 19) is 45.9%. The inhibition at 8 µM in experiment [1] (Homo sapiens, read-out: percent inhibition of TNFα secretion, ibudilast 8 μM, dipyridamole (μM): 0, 0.15, 0.3, 0.61, 1.2, 2.4, 4.9, 9.7, 19) is 53.8%.

Turning to `COc1ccc(C2CNC(=O)C2)cc1OC1CCCC1` (stereo not shown) [Rolipram, 4-[3-(cyclopentyloxy)-4-methoxyphenyl]-2-pyrrolidone], the inhibition at 0.5 µM in experiment [1] (Homo sapiens, read-out: percent inhibition of TNFα secretion, rolipram 0.5 μM, dipyridamole (μM): 0, 0.15, 0.3, 0.61, 1.2, 2.4, 4.9, 9.7, 19) came to 36.8%. Also, in experiment [1] (Homo sapiens, read-out: percent inhibition of TNFα secretion, rolipram 1 μM, dipyridamole (μM): 0, 0.15, 0.3, 0.61, 1.2, 2.4, 4.9, 9.7, 19), the inhibition at 1 µM was 38.9%.

In the case of `CN1CCC(=C2c3ccccc3C=Cc3ccccc32)CC1` [Cyproheptadine HCl], the “percent inhibition of TNFα secretion” value in experiment [1] (cyproheptadine HCl (μM) by grid row: r5 0, r6 0.24, r7 0.48, r8 0.96, r9 1.9, r10 3.9, r11 7.7, r12 15, r13 31) is 29%.
